These results are taken from US7262192B2, “Substituted pyrazolo[4,3-d]pyrimidines and their use as PDE-5 inhibitors” (Pfizer Inc., priority 2003, dated 2007).

By IC50 is commonly meant the concentration that gives 50% inhibition.

The assay concerns the target cGMP-specific PDE-5 (UniProt O76074). The experiment in a line: PDE-5 inhibition, batch method or scintillation proximity assay. The format is biochemical, human. As to conditions: activity against PDE-5; representative preferred compounds. An excerpt: The compounds of the invention are inhibitors of cyclic guanylate monophosphate (cGMP)-specific phosphodiesterase type 5 (PDE-5 inhibitors).
The required PDE enzymes can be isolated from a variety of sources, including human corpus cavernosum, human and rabbit platelets, human cardiac ventricle, human skeletal muscle and bovine retina, essentially by a modification of the method of Thompson, W J et al.; Biochemistry 18(23), 5228-5237, 1979, as described by Ballard S A et al.; J. Urology 159(6), 2164-2171, 1998. In particular, cGMP-specific PDE-5 and cGMP-inhibited cAMP PDE-3 can be obtained from human corpus cavernosum tissue, human platelets or rabbit platelets; cGMP-stimulated PDE-2 was obtained from human corpus cavernosum; calcium/calmodulin (Ca/CAM)-dependent PDE-1 from human cardiac ventricle; cAMP-specific PDE-4 from human skeletal muscle; and photoreceptor PDE-6 from bovine retina. Phosphodiesterases 7-11 can be generated from full length human recombinant clones transfected into SF9 cells.
Assays can be performed either using a modification of the “batch” method of Thompson W J and Appleman M M; Biochemistry 10(2),311-316, 1971, essentially as described by Ballard S A et al.; J. Urology 159(6), 2164-2171, 1998, or using a scintillation proximity assay for the direct detection of [^3H]-labelled AMP/GMP using a modification of the protocol described by Amersham plc under product code TRKQ7090/7100. In summary, for the scintillation proximity assay the effect of PDE inhibitors was investigated by assaying a fixed amount of enzyme in the presence of varying inhibitor concentrations and low substrate, (cGMP or cAMP in a 3:1 ratio unlabelled to [^3H]-labeled at a concentration of ˜⅓ Km or less) such that IC50≈Ki. The final assay volume was made up to 100 μL with assay buffer [20 mM Tris-HCl pH 7.4, 5 mM MgCl2, 1 mg/mL bovine serum albumin]. Reactions were initiated with enzyme, incubated for 30-60 min at 30° C. to give <30% substrate turnover and terminated with 50 μL silicate SPA beads (containing 3 mM of the respective unlabelled cyclic nucleotide for PDEs 9 and 11).
(In a scintillation proximity assay essentially only radioactivity close to the scintillant gives light.)
The compound `CCOCCn1nc(CC)c2nc(N(C)C3CCN(C)CC3)nc(Nc3ccncn3)c21` [Example 2] returned an IC50 of 0.5 nM.
With `CCOCCn1nc(C)c2nc(N3CCNC(C)C3)nc(Nc3ccncn3)c21` (stereo not shown) [Example 11] the figure was 0.31 nM; with `CCOCCn1nc(CC)c2nc(N3CCNC(C)C3)nc(Nc3ccncn3)c21` (stereo not shown) [Example 15], 0.11 nM.
Next, `CCCOCCn1nc(C)c2nc(N3CCNC(C)C3)nc(Nc3ccncn3)c21` (stereo not shown) [Example 23]: 0.47 nM; `CCOCCn1nc(C)c2nc(N3CC(C)NCC3C)nc(Nc3ccncn3)c21` (stereo not shown) [Example 138]: 0.33 nM.
Next, `CCOCCn1nc(CC)c2nc(N3CC(C)NCC3C)nc(Nc3ccncn3)c21` (stereo not shown) [Example 141]: 0.15 nM.
For the compound `CCOCCn1nc(CC)c2nc(N(C)C3CCN(C)C3)nc(Nc3cc(C)ccn3)c21` (stereo not shown) [Example 162], the IC50 was determined as 0.24 nM.
Next, `CCOCCn1nc(CO)c2nc(N(C)CC)nc(Nc3cc(C)ccn3)c21` [Example 181, [1-(2-Ethoxyethyl)-5-(N-ethyl-N-methylamino)-7-(4-methylpyridin-2-ylamino)-1H-pyrazolo[4,3-d]pyrimidin-3-yl]methanol]: 0.41 nM; `CCOCCn1nc(COC)c2nc(N(C)C)nc(Nc3cc(C)ccn3)c21` [Example 185, 1-(2-Ethoxyethyl)-3-methoxymethyl-N^5,N^5-dimethyl-N^7-(4-methylpyridin-2-yl)-1H-pyrazolo[4,3-d]pyrimidine-5,7-diamine]: 1.32 nM; `CCOCCn1nc(C)c2nc(N(C)[C@H]3CCN(C)C3)nc(Nc3ccncn3)c21` [Example 191, 1-(2-Ethoxyethyl)-N^5,3-dimethyl-N^5-[(3S)-1-methylpyrrolidin-3-yl]-N^7-pyrimidin-4-yl-1H-pyrazolo[4,3-d]pyrimidine-5,7-diamine]: 2.4 nM.
Next, `CCOCCn1nc(COC)c2nc(N3CCN[C@H](C)C3)nc(Nc3cccc(C)n3)c21` [Example 211]: 2.7 nM; `CCOCc1nn(CCOCC(F)(F)F)c2c(Nc3cccc(C)n3)nc(N3CCNC(C)C3)nc12` (stereo not shown) [Example 255]: 1.43 nM; `CCOCc1nn(CCOCC(F)(F)F)c2c(Nc3cc(C)ccn3)nc(N3CCNC(C)C3)nc12` (stereo not shown) [Example 256]: 3.89 nM.
